In US20180153807A1, “COMPOSITIONS AND METHODS FOR TREATING MYCOBACTERIA INFECTIONS AND LUNG DISEASE” (priority 2015, published 2018):
Read-outs that look alike come from different tables or passages of the source.

What was measured:
[1] = tested on: Mycobacterium avium complex (MAC) 104 biofilm; assay: Cochleate treatment of Mycobacteria biofilm on polarized A549 cells in transwell; format: cell-based; conditions: delivered daily to bottom well, MAC 104 biofilm on A549 cells
Description: A549 alveolar epithelial cells were cultured in a transwell system. A549 cells became polarized after 6 days and integrity. Bacteria were seeded on the top (apical surface) of the cells. Seven days were allowed for biofilm formation.
Mycobacterium avium complex (MAC) 104 (10^5 bacteria) infection inoculum.
0.1 ml of the different treatments were delivered to the bottom well daily. The basolateral surface (bottom) of the cells were immersed in the tissue culture medium present in the bottom well. Three replicas per experimental group were tested in two different experiments.
Biofilm and epithelial cells were lysed and diluted and plated onto 7H10.

[2] = tested on: Mycobacterium avium complex (MAC)
Description: C57 BL/6 mice were infected with 8.3×10^6 of Mycobacterium avium complex (MAC) intranasally and the infection was allowed to establish for 7 days. Then baseline bacterial load was determined in 10 mice and treatment protocols were initiated. Mice were treated daily for 4 weeks (orally or with intraperitonal injection of free amikacin). Mice were harvested and lung and spleens were removed, homogenized and plated to determine the bacterial load. Experimental groups had 12 mice each.

[3] = rats; cited from earlier work

NCC[C@H](O)C(=O)N[C@@H]1C[C@H](N)[C@@H](O[C@H]2O[C@H](CN)[C@@H](O)[C@H](O)[C@H]2O)[C@H](O)[C@H]1O[C@H]1O[C@H](CO)[C@@H](O)[C@H](N)[C@H]1O [Free amikacin, Amikacin]
CFU/bacteria, 14 days ([1]; 20 μg/ml): 9.1 ± 0.4 × 10^5 CFU
CFU/bacteria, 14 days ([1]; 100 μg/ml): 3.2 ± 0.3 × 10^5 CFU
bacterial load ([2]; IP 100 mg/Kg, daily for 4 weeks, 100 mg/kg): 5.6 ± 0.4 × 10^3^(2)(3) CFU
bacterial load ([2]; IP 100 mg/Kg, daily for 4 weeks, listed as AMK, 100 mg/kg): 5.6×10^3 CFU
kind of effect observed (in words) ([2]; daily for 4 weeks): bactericidal
toxicity, histopathology including kidneys (in words) ([2]; mouse, in vivo): no toxicity was observed
bacterial load ([2]; oral, daily for 4 weeks, dose not given): 2.2 ± 0.5 × 10^5^(1) CFU
published NOAEL for injected (intravenous) amikacin [3]: 100 mg/kg
